In ChEMBL document CHEMBL5096151, “Phytocannabinoid Pharmacology: Medicinal Properties of Cannabis sativa Constituents Aside from the "Big Two"” (J Nat Prod, 2021):

How the values were obtained:
Cytochrome P450 2B6 = biological target: T1, Cytochrome P450 2B6 (Homo sapiens, UniProt P20813); assay: Mixed inhibition of recombinant CYP2B6 (unknown origin) using coumarin as substrate in presence of NADPH-generating system by Lineweaver-burk plots analysis; type: ADME
T1 sequence (P20813 whole entry): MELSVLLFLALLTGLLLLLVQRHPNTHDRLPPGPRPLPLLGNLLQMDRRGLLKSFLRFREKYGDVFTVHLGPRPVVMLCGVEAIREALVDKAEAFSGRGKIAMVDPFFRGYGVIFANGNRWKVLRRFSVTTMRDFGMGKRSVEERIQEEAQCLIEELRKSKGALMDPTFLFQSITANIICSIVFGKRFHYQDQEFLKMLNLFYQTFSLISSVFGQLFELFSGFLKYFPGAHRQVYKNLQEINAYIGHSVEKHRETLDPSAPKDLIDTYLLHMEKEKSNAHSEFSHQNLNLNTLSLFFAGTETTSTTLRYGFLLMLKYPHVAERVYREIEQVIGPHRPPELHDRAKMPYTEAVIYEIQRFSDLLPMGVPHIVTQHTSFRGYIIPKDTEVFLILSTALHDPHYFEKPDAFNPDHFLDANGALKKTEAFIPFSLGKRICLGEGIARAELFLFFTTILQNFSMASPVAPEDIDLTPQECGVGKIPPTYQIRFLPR

[1] = biological target: T2, Transient receptor potential cation channel subfamily V member 2 (Homo sapiens, UniProt Q9Y5S1); assay: Agonist activity at ionomycin-stimulated TRPV2 (unknown origin) channel desensitization in presence of lysophosphatidylcholine
T2 sequence (Q9Y5S1 whole entry): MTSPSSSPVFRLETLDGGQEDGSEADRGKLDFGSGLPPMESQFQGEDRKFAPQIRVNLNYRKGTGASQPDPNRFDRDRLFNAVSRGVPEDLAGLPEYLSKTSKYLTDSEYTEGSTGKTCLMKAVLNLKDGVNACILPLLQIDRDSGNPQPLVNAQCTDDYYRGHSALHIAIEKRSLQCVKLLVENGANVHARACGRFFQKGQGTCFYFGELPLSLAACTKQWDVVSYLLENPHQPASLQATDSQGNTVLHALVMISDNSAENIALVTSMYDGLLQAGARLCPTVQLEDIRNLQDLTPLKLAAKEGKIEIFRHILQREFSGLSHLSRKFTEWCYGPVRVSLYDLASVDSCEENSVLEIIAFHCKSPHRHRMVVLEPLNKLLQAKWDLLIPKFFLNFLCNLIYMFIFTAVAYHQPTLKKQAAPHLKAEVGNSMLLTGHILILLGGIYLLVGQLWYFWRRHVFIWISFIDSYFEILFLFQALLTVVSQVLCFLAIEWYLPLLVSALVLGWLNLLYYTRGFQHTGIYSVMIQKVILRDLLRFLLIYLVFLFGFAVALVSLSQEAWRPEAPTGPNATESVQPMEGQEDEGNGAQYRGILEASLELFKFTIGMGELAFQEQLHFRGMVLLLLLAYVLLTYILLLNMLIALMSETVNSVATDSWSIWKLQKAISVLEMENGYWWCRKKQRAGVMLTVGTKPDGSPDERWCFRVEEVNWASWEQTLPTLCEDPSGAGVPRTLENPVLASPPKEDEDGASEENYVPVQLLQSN

[2] = biological target: T3, G-protein coupled receptor 6 (Homo sapiens, UniProt P46095); assay: Binding affinity to human GPR6 expressed in HEK293 cells assessed as reduction in cAMP level incubated for 1 hr by HTRF assay; type: cell-based
T3 sequence (P46095 whole entry): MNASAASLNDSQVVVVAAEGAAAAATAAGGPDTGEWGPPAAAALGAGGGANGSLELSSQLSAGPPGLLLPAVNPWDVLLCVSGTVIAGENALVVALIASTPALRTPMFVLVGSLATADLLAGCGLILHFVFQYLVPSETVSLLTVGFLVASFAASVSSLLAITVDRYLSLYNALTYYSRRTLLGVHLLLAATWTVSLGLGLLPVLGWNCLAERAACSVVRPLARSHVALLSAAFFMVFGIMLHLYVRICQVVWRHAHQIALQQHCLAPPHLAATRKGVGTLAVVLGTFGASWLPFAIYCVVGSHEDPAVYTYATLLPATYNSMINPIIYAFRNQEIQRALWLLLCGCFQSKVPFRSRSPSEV

Cytochrome P450 1A1 [3] = biological target: T4, Cytochrome P450 1A1 (Homo sapiens, UniProt P04798); assay: Inhibition of human recombinant CYP1A1 preincubated with NADPH for 20 mins and measured after 30 min by Lineweaver-burk plots analysis; type: ADME
T4 sequence (P04798 whole entry): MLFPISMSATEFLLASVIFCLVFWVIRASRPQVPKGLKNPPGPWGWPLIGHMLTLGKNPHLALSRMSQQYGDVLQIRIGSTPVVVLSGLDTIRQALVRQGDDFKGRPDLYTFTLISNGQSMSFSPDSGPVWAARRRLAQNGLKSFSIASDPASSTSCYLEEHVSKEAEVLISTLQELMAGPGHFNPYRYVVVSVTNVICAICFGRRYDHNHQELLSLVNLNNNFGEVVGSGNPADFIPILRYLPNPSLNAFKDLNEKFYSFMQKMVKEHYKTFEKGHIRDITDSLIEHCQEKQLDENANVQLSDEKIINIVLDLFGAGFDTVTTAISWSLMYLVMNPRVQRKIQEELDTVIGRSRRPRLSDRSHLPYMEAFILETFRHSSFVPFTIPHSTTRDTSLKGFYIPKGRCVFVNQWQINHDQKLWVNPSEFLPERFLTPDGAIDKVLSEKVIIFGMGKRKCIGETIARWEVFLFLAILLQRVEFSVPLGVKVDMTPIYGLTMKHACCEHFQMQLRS

Cytochrome P450 2D6 [4] = biological target: T5, Cytochrome P450 2D6 (Homo sapiens, UniProt P10635); assay: Inhibition of CYP2D6 in human liver microsomes in presence of NADPH-generating system incubated for 20 mins; type: ADME, Microsome
T5 sequence (P10635 whole entry): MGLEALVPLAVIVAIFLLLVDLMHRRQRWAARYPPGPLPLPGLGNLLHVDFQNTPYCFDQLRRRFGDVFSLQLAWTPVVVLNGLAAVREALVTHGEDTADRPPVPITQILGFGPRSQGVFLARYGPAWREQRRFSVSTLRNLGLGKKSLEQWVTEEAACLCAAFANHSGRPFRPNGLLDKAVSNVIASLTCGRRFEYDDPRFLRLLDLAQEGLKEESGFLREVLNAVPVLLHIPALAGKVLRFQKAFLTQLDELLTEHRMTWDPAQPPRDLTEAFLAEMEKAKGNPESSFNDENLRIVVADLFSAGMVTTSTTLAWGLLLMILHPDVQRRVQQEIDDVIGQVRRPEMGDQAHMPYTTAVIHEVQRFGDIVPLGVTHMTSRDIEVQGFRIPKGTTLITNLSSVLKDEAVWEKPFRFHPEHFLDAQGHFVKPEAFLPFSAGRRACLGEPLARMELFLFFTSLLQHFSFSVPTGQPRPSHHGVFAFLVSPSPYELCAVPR

[5] = biological target: Transient receptor potential cation channel subfamily V member 1 (Homo sapiens, UniProt Q8NER1); assay: Agonist activity at ionomycin-stimulated TRPV1 (unknown origin) activation
Chain of Transient receptor potential cation channel subfamily V member 1 (Q8NER1 whole entry): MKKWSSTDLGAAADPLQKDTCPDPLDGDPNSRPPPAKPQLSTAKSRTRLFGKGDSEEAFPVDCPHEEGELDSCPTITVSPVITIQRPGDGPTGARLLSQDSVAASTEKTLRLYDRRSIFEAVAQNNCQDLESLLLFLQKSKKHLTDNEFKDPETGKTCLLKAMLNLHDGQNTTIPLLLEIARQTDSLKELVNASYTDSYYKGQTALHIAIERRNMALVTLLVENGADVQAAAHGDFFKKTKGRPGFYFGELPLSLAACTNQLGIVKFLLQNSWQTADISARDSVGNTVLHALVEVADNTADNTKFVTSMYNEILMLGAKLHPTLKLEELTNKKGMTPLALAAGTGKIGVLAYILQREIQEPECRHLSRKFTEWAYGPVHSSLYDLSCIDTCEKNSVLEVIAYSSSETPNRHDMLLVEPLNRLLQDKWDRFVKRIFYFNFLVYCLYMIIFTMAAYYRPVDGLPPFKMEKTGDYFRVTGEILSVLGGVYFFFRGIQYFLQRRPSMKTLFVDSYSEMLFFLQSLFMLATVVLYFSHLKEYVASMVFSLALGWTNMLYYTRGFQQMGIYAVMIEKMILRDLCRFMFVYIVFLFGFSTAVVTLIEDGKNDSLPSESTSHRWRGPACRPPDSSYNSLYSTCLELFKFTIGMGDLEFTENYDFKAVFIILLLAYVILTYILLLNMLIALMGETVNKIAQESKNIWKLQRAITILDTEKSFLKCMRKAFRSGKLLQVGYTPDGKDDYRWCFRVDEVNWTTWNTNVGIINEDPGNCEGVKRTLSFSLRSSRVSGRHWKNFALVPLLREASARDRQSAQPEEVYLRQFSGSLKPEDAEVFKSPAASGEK

[6] = biological target: T3, G-protein coupled receptor 6; assay: Binding affinity to human GPR6 expressed in HEK293 cells assessed as reduction in cAMP level by measuring efficacy incubated for 1 hr by HTRF assay relative to control; type: cell-based
[7] = biological target: T6, Transient receptor potential cation channel subfamily V member 4 (Homo sapiens, UniProt Q9HBA0); assay: Agonist activity at ionomycin-stimulated TRPV4 (unknown origin) activation assessed as efficacy relative to control
T6 sequence (Q9HBA0 whole entry): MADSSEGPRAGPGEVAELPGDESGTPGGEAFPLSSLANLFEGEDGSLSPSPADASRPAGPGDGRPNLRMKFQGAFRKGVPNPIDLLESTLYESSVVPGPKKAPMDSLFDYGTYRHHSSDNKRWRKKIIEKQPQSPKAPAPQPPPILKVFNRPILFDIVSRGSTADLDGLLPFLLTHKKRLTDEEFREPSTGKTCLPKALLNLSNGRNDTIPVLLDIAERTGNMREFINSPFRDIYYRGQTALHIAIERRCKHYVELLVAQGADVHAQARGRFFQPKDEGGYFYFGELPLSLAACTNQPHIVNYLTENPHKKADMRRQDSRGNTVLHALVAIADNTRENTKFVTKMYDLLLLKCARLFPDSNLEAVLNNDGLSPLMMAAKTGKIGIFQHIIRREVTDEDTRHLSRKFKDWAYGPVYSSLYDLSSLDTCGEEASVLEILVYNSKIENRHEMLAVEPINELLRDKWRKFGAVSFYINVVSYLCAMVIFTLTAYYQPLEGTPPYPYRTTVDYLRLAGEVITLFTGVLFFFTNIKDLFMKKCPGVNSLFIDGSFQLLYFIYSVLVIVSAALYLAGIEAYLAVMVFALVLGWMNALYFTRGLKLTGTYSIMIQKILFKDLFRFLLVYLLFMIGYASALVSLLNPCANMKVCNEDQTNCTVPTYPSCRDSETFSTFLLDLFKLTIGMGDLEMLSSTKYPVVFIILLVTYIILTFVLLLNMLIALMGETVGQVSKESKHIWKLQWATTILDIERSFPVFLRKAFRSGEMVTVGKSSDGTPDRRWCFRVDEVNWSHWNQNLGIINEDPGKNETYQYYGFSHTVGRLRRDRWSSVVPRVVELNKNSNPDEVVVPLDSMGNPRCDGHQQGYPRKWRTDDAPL

Cytochrome P450 1A1 [8] = biological target: T4, Cytochrome P450 1A1; assay: Inhibition of recombinant CYP1A1 (unknown origin) preincubated with NADPH for 20 mins and measured after 30 min; type: ADME
[9] = biological target: Transient receptor potential cation channel subfamily A member 1 (Homo sapiens, UniProt O75762); assay: Agonist activity at TRPA1 (unknown origin) activation
Chain of Transient receptor potential cation channel subfamily A member 1 (O75762 whole entry): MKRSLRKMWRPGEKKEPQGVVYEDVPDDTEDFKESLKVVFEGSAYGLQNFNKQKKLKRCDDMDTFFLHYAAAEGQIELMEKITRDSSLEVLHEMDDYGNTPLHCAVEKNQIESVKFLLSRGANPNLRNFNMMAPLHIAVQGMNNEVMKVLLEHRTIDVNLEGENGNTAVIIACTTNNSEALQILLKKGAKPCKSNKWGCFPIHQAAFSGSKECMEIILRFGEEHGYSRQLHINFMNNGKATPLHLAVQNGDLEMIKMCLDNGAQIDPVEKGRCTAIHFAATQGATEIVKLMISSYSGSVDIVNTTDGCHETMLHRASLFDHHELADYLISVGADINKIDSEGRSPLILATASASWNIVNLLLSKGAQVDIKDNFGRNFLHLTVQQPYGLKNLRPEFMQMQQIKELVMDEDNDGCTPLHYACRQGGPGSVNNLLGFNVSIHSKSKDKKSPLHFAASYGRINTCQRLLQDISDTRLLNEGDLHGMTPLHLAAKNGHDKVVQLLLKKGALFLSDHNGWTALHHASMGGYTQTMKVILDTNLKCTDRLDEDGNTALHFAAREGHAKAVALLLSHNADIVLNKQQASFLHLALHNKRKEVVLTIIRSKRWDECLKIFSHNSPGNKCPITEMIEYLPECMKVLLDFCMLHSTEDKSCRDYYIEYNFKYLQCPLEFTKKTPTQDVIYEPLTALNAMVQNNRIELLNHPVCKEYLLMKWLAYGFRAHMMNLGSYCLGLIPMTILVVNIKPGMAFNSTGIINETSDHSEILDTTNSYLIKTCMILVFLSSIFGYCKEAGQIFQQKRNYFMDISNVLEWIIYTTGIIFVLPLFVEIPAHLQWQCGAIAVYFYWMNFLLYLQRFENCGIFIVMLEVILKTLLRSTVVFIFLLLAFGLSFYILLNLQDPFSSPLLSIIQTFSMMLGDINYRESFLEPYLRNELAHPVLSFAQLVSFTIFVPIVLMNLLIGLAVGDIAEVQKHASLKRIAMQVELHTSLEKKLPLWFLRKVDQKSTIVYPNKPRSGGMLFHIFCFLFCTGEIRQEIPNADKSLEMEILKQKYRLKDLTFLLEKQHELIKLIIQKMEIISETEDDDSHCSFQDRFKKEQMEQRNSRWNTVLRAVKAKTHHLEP

[10] = biological target: Transient receptor potential cation channel subfamily M member 8 (Homo sapiens, UniProt Q7Z2W7); assay: Antagonist activity at TRPM8 (unknown origin) desensitization in presence of icilin
[11] = biological target: T6, Transient receptor potential cation channel subfamily V member 4; assay: Agonist activity at ionomycin-stimulated TRPV4 (unknown origin) activation
Cytochrome P450 2D6 [12] = biological target: T5, Cytochrome P450 2D6; assay: Inhibition of CYP2D6 in human liver microsomes by measuring inhibition constant in presence of NADPH-generating system incubated for 20 mins; type: ADME, Microsome
[13] = biological target: T7, Transient receptor potential cation channel subfamily V member 3 (Homo sapiens, UniProt Q8NET8); assay: Agonist activity at ionomycin-stimulated TRPV3 (unknown origin) channel desensitization in presence of carvacrol
T7 sequence (Q8NET8 whole entry): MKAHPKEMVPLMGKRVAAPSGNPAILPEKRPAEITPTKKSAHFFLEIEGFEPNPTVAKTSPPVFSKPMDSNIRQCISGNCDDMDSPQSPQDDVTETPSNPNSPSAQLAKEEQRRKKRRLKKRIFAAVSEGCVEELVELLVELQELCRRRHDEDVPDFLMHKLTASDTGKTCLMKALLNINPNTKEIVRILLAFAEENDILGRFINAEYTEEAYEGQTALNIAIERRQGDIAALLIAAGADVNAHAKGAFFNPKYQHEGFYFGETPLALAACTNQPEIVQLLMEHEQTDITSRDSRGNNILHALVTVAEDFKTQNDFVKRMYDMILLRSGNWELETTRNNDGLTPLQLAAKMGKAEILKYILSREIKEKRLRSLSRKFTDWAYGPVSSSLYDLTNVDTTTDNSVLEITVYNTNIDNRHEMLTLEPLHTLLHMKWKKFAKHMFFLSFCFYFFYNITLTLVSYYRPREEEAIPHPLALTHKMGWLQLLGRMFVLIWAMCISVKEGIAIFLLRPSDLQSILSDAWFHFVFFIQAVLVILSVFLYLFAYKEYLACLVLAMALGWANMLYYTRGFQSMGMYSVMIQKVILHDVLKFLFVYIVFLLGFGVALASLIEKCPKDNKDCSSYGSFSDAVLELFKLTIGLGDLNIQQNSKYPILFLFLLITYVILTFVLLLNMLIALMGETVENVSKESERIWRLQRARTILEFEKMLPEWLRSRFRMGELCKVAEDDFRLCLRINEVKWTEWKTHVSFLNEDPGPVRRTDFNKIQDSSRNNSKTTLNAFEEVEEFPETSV

[14] = biological target: T2, Transient receptor potential cation channel subfamily V member 2; assay: Agonist activity at ionomycin-stimulated TRPV2 (unknown origin) activation

SMILES: C=C(C)[C@@H]1CCC(C)=C[C@H]1c1c(O)cc(CCC)cc1O [CANNABIDIVARIN]
- Ki (Cytochrome P450 2B6): 1300 nM
- IC50 [1]: 31000 nM
- EC50 [2]: 2400 nM
- Ki (Cytochrome P450 1A1 [3]): 1600 nM
- IC50 (Cytochrome P450 2D6 [4]): 10200 nM
- EC50 [5]: 3600 nM
- Efficacy [6]: 90%
- Efficacy [7]: 30%
- IC50 (Cytochrome P450 1A1 [8]): 60 nM
- EC50 [9]: 420 nM
- IC50 [10]: 900 nM
- EC50 [11]: 900 nM
- Ki (Cytochrome P450 2D6 [12]): 5800 nM
- IC50 [13]: 25000 nM
- EC50 [14]: 7300 nM
